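The compound was tested at five concentrations on cells cultured in 96-well plates, with a 48-hour exposure period. At the GI50, growth is halved. The concentration for full growth arrest is given as TGI.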
Columns and labels:
Experiment in all cases: DTP human tumour cell line panel, 48 h
M14 melanoma = test system: M14 melanoma
TK-10 renal = test system: TK-10 renal
SF-539 CNS = test system: SF-539 CNS
UACC-257 melanoma = test system: UACC-257 melanoma
HS 578T breast = test system: HS 578T breast
PC-3 prostate = test system: PC-3 prostate
RPMI-8226 leukemia = test system: RPMI-8226 leukemia
IGROV1 ovarian = test system: IGROV1 ovarian
HL-60(TB) leukemia = test system: HL-60(TB) leukemia
ACHN renal = test system: ACHN renal
SK-MEL-2 melanoma = test system: SK-MEL-2 melanoma
SK-MEL-28 melanoma = test system: SK-MEL-28 melanoma
HOP-62 NSCLC = test system: HOP-62 NSCLC
HCT-15 colon = test system: HCT-15 colon
LOX IMVI melanoma = test system: LOX IMVI melanoma
UACC-62 melanoma = test system: UACC-62 melanoma
NCI-H23 lung = test system: NCI-H23 lung
OVCAR-5 ovarian = test system: OVCAR-5 ovarian
COLO 205 colon = test system: COLO 205 colon
DU-145 prostate = test system: DU-145 prostate
RXF 393 renal = test system: RXF 393 renal
U251 CNS = test system: U251 CNS
K-562 leukemia = test system: K-562 leukemia
HCT-116 colon = test system: HCT-116 colon
SNB-19 CNS = test system: SNB-19 CNS
A549 NSCLC = test system: A549 NSCLC
HT29 colon = test system: HT29 colon
NCI/ADR-RES ovarian = test system: NCI/ADR-RES ovarian
HOP-92 NSCLC = test system: HOP-92 NSCLC
OVCAR-8 ovarian = test system: OVCAR-8 ovarian
MCF7 breast = test system: MCF7 breast
KM12 colon = test system: KM12 colon
SNB-75 CNS = test system: SNB-75 CNS
NCI-H226 lung = test system: NCI-H226 lung
SW-620 colon = test system: SW-620 colon
SF-268 CNS = test system: SF-268 CNS
UO-31 renal = test system: UO-31 renal
SK-MEL-5 melanoma = test system: SK-MEL-5 melanoma
MDA-MB-231 breast = test system: MDA-MB-231 breast
EKVX NSCLC = test system: EKVX NSCLC
A498 renal = test system: A498 renal
SK-OV-3 ovarian = test system: SK-OV-3 ovarian
NCI-H460 lung = test system: NCI-H460 lung
BT-549 breast = test system: BT-549 breast
786-0 renal = test system: 786-0 renal
MOLT-4 leukemia = test system: MOLT-4 leukemia
SN12C renal = test system: SN12C renal

## COc1ccc2c(c1)SC1=NNC(Cl)C(=O)N12 (centres undefined)
M14 melanoma
  GI50: 17.3 µM
  TGI: 48.4 µM
TK-10 renal
  GI50: 26.6 µM
  TGI: 81.1 µM
SF-539 CNS
  GI50: 15.6 µM
  TGI: 37.8 µM
UACC-257 melanoma
  GI50: 18.2 µM
  TGI: 42.5 µM
HS 578T breast
  GI50: 40.4 µM
  TGI: > 100 µM
PC-3 prostate
  GI50: 37 µM
  TGI: > 100 µM
RPMI-8226 leukemia
  GI50: 18.2 µM
  TGI: 54.1 µM
IGROV1 ovarian
  GI50: 25.2 µM
  TGI: > 100 µM
HL-60(TB) leukemia
  GI50: 33.9 µM
  TGI: > 100 µM
ACHN renal
  GI50: 12.4 µM
  TGI: 26.3 µM
SK-MEL-2 melanoma
  GI50: 42.1 µM
  TGI: > 100 µM
SK-MEL-28 melanoma
  GI50: 13.7 µM
  TGI: 35.2 µM
HOP-62 NSCLC
  GI50: 45.5 µM
  TGI: > 100 µM
HCT-15 colon
  GI50: 15.8 µM
  TGI: 38.4 µM
LOX IMVI melanoma
  GI50: 16 µM
  TGI: 37.4 µM
UACC-62 melanoma
  GI50: 15.6 µM
  TGI: 36 µM
NCI-H23 lung
  GI50: 18 µM
  TGI: 39.6 µM
OVCAR-5 ovarian
  GI50: 27.9 µM
  TGI: 94.1 µM
COLO 205 colon
  GI50: 16.7 µM
  TGI: 44.3 µM
DU-145 prostate
  GI50: 12.8 µM
  TGI: 30.3 µM
RXF 393 renal
  GI50: 18.4 µM
  TGI: 59.1 µM
U251 CNS
  GI50: 18.9 µM
  TGI: 45.1 µM
K-562 leukemia
  GI50: 35.3 µM
  TGI: > 100 µM
HCT-116 colon
  GI50: 24 µM
  TGI: 87.3 µM
SNB-19 CNS
  GI50: 38.4 µM
  TGI: > 100 µM
A549 NSCLC
  GI50: 38.1 µM
  TGI: > 100 µM
HT29 colon
  GI50: 11.8 µM
  TGI: 35.1 µM
NCI/ADR-RES ovarian
  GI50: 19.8 µM
  TGI: 47.6 µM
HOP-92 NSCLC
  GI50: 20.1 µM
  TGI: 56.2 µM
OVCAR-8 ovarian
  GI50: 21.5 µM
  TGI: 54.2 µM
MCF7 breast
  GI50: 24.5 µM
  TGI: > 100 µM
KM12 colon
  GI50: 20.7 µM
  TGI: 48 µM
SNB-75 CNS
  GI50: 30.3 µM
  TGI: 83.5 µM
NCI-H226 lung
  GI50: 16.2 µM
  TGI: 64.3 µM
SW-620 colon
  GI50: 21.8 µM
  TGI: 65.7 µM
SF-268 CNS
  GI50: 24.2 µM
  TGI: 62.1 µM
UO-31 renal
  GI50: 5.9 µM
  TGI: > 100 µM
SK-MEL-5 melanoma
  GI50: 15.6 µM
  TGI: 34 µM
MDA-MB-231 breast
  GI50: 15.3 µM
  TGI: 35.6 µM
EKVX NSCLC
  GI50: 10.5 µM
  TGI: 29.1 µM
A498 renal
  GI50: 26.1 µM
  TGI: 53.3 µM
SK-OV-3 ovarian
  GI50: 33 µM
  TGI: > 100 µM
NCI-H460 lung
  GI50: 29.5 µM
  TGI: > 100 µM
BT-549 breast
  GI50: 17.2 µM
  TGI: 40.6 µM
786-0 renal
  GI50: 33.2 µM
  TGI: > 100 µM
MOLT-4 leukemia
  GI50: 31.2 µM
  TGI: > 100 µM
SN12C renal
  GI50: 16.5 µM
  TGI: 37.3 µM

Reference: PubChem BioAssay (NCI)
